This note sets out measurements from the SangsterLogP compilation.

Compound `CC(=O)c1sc(S(C)=O)c(-c2ccc(Cl)cc2)c1N` (configuration not stated) came in with a logP of 3.18.
The figure for `CS(=O)c1sccc1Br` (configuration not stated) is 1.71.
The compound `CCCCS(=O)c1sc(C#N)cc1C#N` (configuration not stated) yielded a logP of 2.64.
On to `CCOC(=O)c1cc(C#N)c(S(C)=O)s1` (configuration not stated), for which the logP worked out at 2.27.
The figure for `Cc1c(C#N)sc(S(C)(=O)=O)c1-c1ccc(Cl)cc1` is 3.8.
The figure for `CCCCS(=O)c1sc(C#N)c(Cl)c1C#N` (configuration not stated) is 3.44.
The result for `Cc1sc(S(C)=O)c([N+](=O)[O-])c1C` (configuration not stated) reads 2.65; that for `CC(=O)c1sc(S(C)=O)c(-c2ccc(Cl)cc2)c1C` (configuration not stated), 3.82; that for `CCS(=O)c1sccc1[N+](=O)[O-]` (configuration not stated), 2.06.
`CCS(=O)c1sc(C#N)c(C)c1C(C)=O` (configuration not stated) yielded a logP of 2.22.
The result for `CS(=O)c1sccc1[N+](=O)[O-]` (configuration not stated) reads 1.69; that for `CS(=O)c1scc(-c2ccccc2)c1[N+](=O)[O-]` (configuration not stated), 3.2; that for `CS(=O)c1cccs1` (configuration not stated), 0.91.
The result for `CCCS(=O)c1sc(C#N)c(Cl)c1C#N` (configuration not stated) reads 2.95; that for `CCS(=O)c1sc(C(C)=O)c(C)c1C#N` (configuration not stated), 2.22; that for `CCCS(=O)c1sc(C#N)cc1C#N` (configuration not stated), 2.18.
The result for `Cc1csc(S(C)=O)c1[N+](=O)[O-]` (configuration not stated) reads 2.19.
For the compound `CS(=O)c1sccc1C#N` (configuration not stated), the logP is 0.96.
The figure for `CCCS(=O)c1sccc1[N+](=O)[O-]` (configuration not stated) is 2.52; for `CCS(=O)c1ccc(C(C)=O)s1` (configuration not stated) it is 1.31.
The figure for `CCS(=O)c1sc(C#N)c(OC)c1C#N` (configuration not stated) is 2.35.
The figure for `CCS(=O)c1sc(C(C)=O)c(C)c1[N+](=O)[O-]` (configuration not stated) is 2.81; for `COc1c(C#N)sc(S(C)=O)c1C#N` (configuration not stated) it is 2.02.
The compound `CCS(=O)c1sc(Cl)cc1C#N` (configuration not stated) displayed a logP of 2.31.
For `CCS(=O)c1sc(C(C)=O)c(N)c1C#N` (configuration not stated), the logP was found to be 1.82.
The figure for `CCS(=O)c1sc(C(C)=O)c(Cl)c1C#N` (configuration not stated) is 2.64; for `CCS(=O)c1sc(C#N)cc1C#N` (configuration not stated) it is 1.78.
The result for `CS(=O)c1sc(C#N)cc1C#N` (configuration not stated) reads 1.31; that for `CS(=O)c1ccc([N+](=O)[O-])s1` (configuration not stated), 1.4.
The result for `CS(=O)c1sc(C#N)c(Cl)c1C#N` (configuration not stated) reads 2.15; that for `CC(=O)c1sc(S(C)=O)c(C#N)c1-c1ccc(Cl)cc1` (configuration not stated), 3.31; that for `CS(=O)c1ccsc1` (configuration not stated), 0.91.

In general, logP refers to the decadic logarithm of the partition coefficient of the neutral form, usually between octanol and water. A lower logP goes with lower lipophilicity.
